Results on 20 compounds are retold here after patent publication US5523315A, “N-(hydroxyethyl)butanediamide derivatives” (Bio-Mega/Boehringer Ingelheim Research Inc., priority 1993, dated 1996).

The target in this test is T1, human renin (Homo sapiens, UniProt P00797).
T1 construct: A human plasma pool is used as the source of both the substrate (angiotensinogen) and the enzyme (renin); from tissue; host or cells: pooled human plasma
T1 sequence (P00797 67-406): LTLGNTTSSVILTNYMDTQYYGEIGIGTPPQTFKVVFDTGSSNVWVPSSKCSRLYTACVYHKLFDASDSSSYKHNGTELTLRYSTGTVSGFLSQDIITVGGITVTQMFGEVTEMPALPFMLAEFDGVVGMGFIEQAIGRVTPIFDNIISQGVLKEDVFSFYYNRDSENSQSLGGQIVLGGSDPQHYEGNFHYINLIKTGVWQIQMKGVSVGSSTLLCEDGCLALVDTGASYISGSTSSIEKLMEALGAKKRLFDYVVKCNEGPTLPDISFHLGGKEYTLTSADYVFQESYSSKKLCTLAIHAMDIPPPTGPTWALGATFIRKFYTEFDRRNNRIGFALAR
The test is described as follows: plasma renin assay (inhibition of human renin; angiotensin I generated, measured by radioimmunoassay). The format is biochemical. The following applies: human plasma pool, pH 6.0, 2 h incubation at 37°. On the procedure:
The assay is performed as follows: The test compound (i.e. the inhibitor) is dissolved in dimethylsulfoxide (1 mM stock solution) and diluted with an aqueous buffer solution of 270 mM 2-(N-morpholino)ethanesulfonic acid and 1% human serum albumin (pH 5.85, also containing dimercaprol and 8-hydroxyquinoline sulfate in accordance with the instructions of the RIA kit noted below) to give an assay mixture in which the final dimethylsulfoxide content is 1% (v/v).
A human plasma pool is used as the source of both the substrate (angiotensinogen) and the enzyme (renin). The reaction is initiated by the addition of 50 μL of human plasma pool to 50 μL of various concentrations of inhibitor in the 1% dimethylsulfoxide assay buffer. The plasma renin activity is measured by the amount of angiotensin I generated at pH 6.0 following a 2 h incubation at 37°.
Quantitation of angiotensin I is performed by radioimmunoassay (RIA kit from New England Nuclear-Dupont, Mississauga, ON, Canada). The enzymatic activity of renin is expressed in ng of angiotensin I generated (/mL/2 h). The extent of inhibition of the reaction is determined from the amount of angiotensin I generated in reference to a control prepared without inhibitor. Nonlinear regression analysis is used to calculate the IC50 values, i.e. the molar concentration of the test compound required to cause a 50% inhibition of the enzyme activity.
For orientation: IC50 means the midpoint of a concentration-inhibition curve. The low end stands for greater potency in that assay, the high end for weaker potency in that assay. `CC(C)C[C@H](O)[C@H](O)[C@H](CC1CCCCC1)NC(=O)[C@@H](CC(=O)NCC(O)c1ccccn1)CC1CC1` (mixture of isomers) [Compound 22, N^4-[2(R,S)-hydroxy-2-(2-pyridinyl)ethyl]-N^1-[1(S)-(cyclohexylmethyl)-2(R),3(S)-dihydroxy-5-methylhexyl]-2(R)-(cyclopropylmethyl)butanediamide] came in with an IC50 of 170 nM.

With `CC(C)C[C@H](O)[C@H](O)[C@H](CC1CCCCC1)NC(=O)[C@@H](CC(=O)N(CC(=O)N(C)C)CC(O)C1CCCCC1)Cc1cscn1` (mixture of isomers) [Compound 42, N^4-[2-cyclohexyl-2(R,S)-hydroxyethyl]-N^4-[2-(dimethylamino)-2-oxoethyl]-N^1-[1(S)-(cyclohexylmethyl)-2(R),3(S)-dihydroxy-5-methylhexyl]-2(R)-(4-thiazolylmethyl)butanediamide], half-maximal inhibition (IC50) was put at 16 nM. The figure for `CC(C)C[C@H](O)[C@H](O)[C@H](CC1CCCCC1)NC(=O)[C@@H](CC(=O)N(CC(=O)N(C)C)CC(O)c1ccccc1)Cc1cscn1` (mixture of isomers) [Compound 44, N^4-[2-(dimethylamino)-2-oxoethyl]-N^4-[2(R,S)-hydroxy-2-phenylethyl]-N^1-[1(S)-(cyclohexylmethyl)-2(R),3(S)-dihydroxy-5-methylhexyl]-2(R)-(4-thiazolylmethyl)butanediamide] is 10 nM; for `CC(C)C[C@H](O)[C@H](O)[C@H](CC1CCCCC1)NC(=O)[C@@H](CC(=O)N(CC(C)O)CC1CCCCC1)Cc1cscn1` (single isomer, unassigned) [Compound 39, N^4-(cyclohexylmethyl)-N^4-[2(R or S)-hydroxypropyl]-N^1-[1(S)-(cyclohexylmethyl)-2(R),3(S)-dihydroxy-5-methylhexyl]-2(R)-(4-thiazolylmethyl)butanediamide] it is 8.7 nM; for `CC(C)C[C@H](O)[C@H](O)[C@H](CC1CCCCC1)NC(=O)[C@@H](CC(=O)N(CC(C)O)CC1CCCCC1)Cc1cscn1` (single isomer, unassigned) [Compound 40, N^4-(cyclohexylmethyl)-N^4-[2(S or R)-hydroxypropyl]-N^1-[1(S)-(cyclohexylmethyl)-2(R),3(S)-dihydroxy-5-methylhexyl]-2(R)-(4-thiazolylmethyl)butanediamide] it is 11 nM.

`CC(C)C[C@H](O)[C@H](O)[C@H](CC1CCCCC1)NC(=O)[C@@H](CC(=O)N(Cc1ccccc1)CC1(O)CCCCC1)CC1CC1` [Compound 1, N^4-benzyl-N^4-[(1-hydroxycyclohexyl)methyl]-N^1-[1(S)-(cyclohexylmethyl)-2(R),3(S)-dihydroxy-5-methylhexyl]-2(R)-(cyclopropylmethyl)butanediamide]: it took 36 nM to reach half-maximal inhibition (IC50). The figure for `CCC[C@H](CC(=O)N(Cc1ccccc1)CC1(O)CCCCC1)C(=O)N[C@@H](CC1CCCCC1)[C@@H](O)[C@@H](O)CC(C)C` [Compound 2, N^4-benzyl-N^4-[(1-hydroxycyclohexyl)methyl]-N^1-[1(S)-(cyclohexylmethyl)-2(R),3(S)-dihydroxy-5-methylhexyl]-2(R)-propylbutanediamide] is 27 nM. The figure for `CC(C)C[C@H](O)[C@H](O)[C@H](CC1CCCCC1)NC(=O)[C@@H](CC(=O)N(Cc1ccc2c(c1)OCO2)CC1(O)CCCCC1)CC1CC1` [Compound 3, N^4-[(1-hydroxycyclohexyl)methyl]-N^4-[(4,5-methylenedioxyphenyl)methyl]-N^1-[1(S)-(cyclohexylmethyl)-2(R),3(S)-dihydroxy-5-methylhexyl]-2(R)-(cyclopropylmethyl)butanediamide] is 21 nM; for `CC(C)C[C@H](O)[C@H](O)[C@H](CC1CCCCC1)NC(=O)[C@@H](CC(=O)N(Cc1ccccn1)CC1(O)CCCCC1)CC1CC1` [Compound 4, N^4-[(1-hydroxycyclohexyl)methyl]-N^4-(2-pyridinylmethyl)-N^1-[1(S)-(cyclohexylmethyl)-2(R),3(S)-dihydroxy-5-methylhexyl]-2(R)-(cyclopropylmethyl)butanediamide] it is 36 nM.

Take `CC(C)C[C@H](O)[C@H](O)[C@H](CC1CCCCC1)NC(=O)[C@@H](CC(=O)N(CCO)CC1(O)CCCCC1)CC1CC1` [Compound 5, N^4-[(1-hydroxycyclohexyl)methyl]-N^4-(2-hydroxyethyl)-N^1-[1(S)-(cyclohexylmethyl)-2(R),3(S)-dihydroxy-5-methylhexyl]-2(R)-(cyclopropylmethyl)butanediamide]: the IC50 is 35 nM. With `CC(C)C[C@H](O)[C@H](O)[C@H](CC1CCCCC1)NC(=O)[C@@H](CC(=O)N(C)CC1(O)CCCCC1)CC1CC1` [Compound 6, N^4-[(1-hydroxycyclohexyl)methyl]-N^4-methyl-N^1-[1(S)-(cyclohexylmethyl)-2(R),3(S)-dihydroxy-5-methylhexyl]-2(R)-(cyclopropylmethyl)butanediamide], the IC50 was found to be 38 nM. The figure for `CC(C)C[C@H](O)[C@H](O)[C@H](CC1CCCCC1)NC(=O)[C@@H](CC(=O)N(CCc1ccccn1)CC1(O)CCCCC1)CC1CC1` [Compound 7, N^4-[(1-hydroxycyclohexyl)methyl]-N^4-[2-(2-pyridinyl)ethyl]-N^1-[1(S)-(cyclohexylmethyl)-2(R),3(S)-dihydroxy-5-methylhexyl]-2(R)-(cyclopropylmethyl)butanediamide] is 53 nM. With `CC(C)C[C@H](O)[C@H](O)[C@H](CC1CCCCC1)NC(=O)[C@@H](CC(=O)N(Cc1ccccn1)CC1(O)CCCCCC1)CC1CC1` [Compound 8, N^4-[(1-hydroxycycloheptyl)methyl]-N^4-(2-pyridinylmethyl)-N^1-[1(S)-(cyclohexylmethyl)-2(R),3(S)-dihydroxy-5-methylhexyl]-2(R)-(cyclopropylmethyl)butanediamide] the figure was 65 nM.

`CC(C)C[C@H](O)[C@H](O)[C@H](CC1CCCCC1)NC(=O)[C@@H](CC(=O)NC[C@H](O)c1ccccc1)CC1CC1` [Compound 9, N^4-(R)-(2-hydroxy-2-phenylethyl)-N^1-[1(S)-(cyclohexylmethyl)-2(R),3(S)-dihydroxy-5-methylhexyl]-2(R)-(cyclopropylmethyl)butanediamide] came in with an IC50 of 72 nM. `CC(C)C[C@H](O)[C@H](O)[C@H](CC1CCCCC1)NC(=O)[C@@H](CC(=O)NCC(O)c1ccccc1)CC1CC1` (stereo partly drawn) [Compound 10, N^4-(R,S)-(2-hydroxy-2-phenylethyl)-N^1-[1(S)-(cyclohexylmethyl)-2(R),3(S)-dihydroxy-5-methylhexyl]-2(R)-(cyclopropylmethyl)butanediamide] registered an IC50 of 74 nM. Regarding `CC(C)C[C@H](O)[C@H](O)[C@H](CC1CCCCC1)NC(=O)[C@@H](CC(=O)N(Cc1ccccc1)C[C@H](O)c1ccccc1)CC1CC1` [Compound 11, N^4-benzyl-N^4-(R)-(2-hydroxy-2-phenylethyl)-N^1-[1(S)-(cyclohexylmethyl)-2(R),3(S)-dihydroxy-5-methylhexyl]-2(R)-(cyclopropylmethyl)butanediamide], the IC50 amounted to 110 nM. With `CC(C)C[C@H](O)[C@H](O)[C@H](CC1CCCCC1)NC(=O)[C@@H](CC(=O)N(Cc1ccccc1)CC(O)c1ccccc1)CC1CC1` (stereo partly drawn) [Compound 12, N^4-benzyl-N^4-(R,S)-(2-hydroxy-2-phenylethyl)-N^1-[1(S)-(cyclohexylmethyl)-2(R),3(S)-dihydroxy-5-methylhexyl]-2(R)-(cyclopropylmethyl)butanediamide] the figure was 71 nM. With `CC(C)C[C@H](O)[C@H](O)[C@H](CC1CCCCC1)NC(=O)[C@@H](CC(=O)N[C@@H](CO)Cc1ccccc1)CC1CC1` [Compound 13, N^4-(R)-[1-(hydroxymethyl)-2-phenylethyl]-N^1-[1(S)-(cyclohexylmethyl)-2(R),3(S)-dihydroxy-5-methylhexyl]-2(R)-(cyclopropylmethyl)butanediamide] the figure was 89 nM; with `CC(C)C[C@H](O)[C@H](O)[C@H](CC1CCCCC1)NC(=O)[C@@H](CC(=O)N[C@H](CO)Cc1ccccc1)CC1CC1` [Compound 14, N^4-(S)-[1-(hydroxymethyl)-2-phenylethyl]-N^1-[1(S)-(cyclohexylmethyl)-2(R),3(S)-dihydroxy-5-methylhexyl]-2(R)-(cyclopropylmethyl)butanediamide], 79 nM; with `CC(C)C[C@H](O)[C@H](O)[C@H](CC1CCCCC1)NC(=O)[C@@H](CC(=O)N(Cc1ncc[nH]1)CC1(O)CCCCC1)CC1CC1` [Compound 15, N^4-[(1-hydroxycyclohexyl)methyl]-N^4-(1H-imidazol-2-ylmethyl)-N^1-[1(S)-(cyclohexylmethyl)-2(R),3(S)-dihydroxy-5-methylhexyl]-2(R)-(cyclopropylmethyl)butanediamide], 80 nM.
